A short description of the data set: Water solubility confirmation (organic material content quantified by Karl Fisher method). In kind it is physicochemical. As for the experimental part:
According to the composition shown in Tables 38 to 61, the water-soluble antioxidant emulsion was added to the natural polyphenol compound emulsion, and then mixing and dispersing were performed at 500 rpm or less while checking the properties of the emulsion to prepare an natural polyphenol compound-containing water-soluble emulsion composition containing a water-soluble antioxidant emulsion. […] After 1 hour of centrifugation and filtering, an organic material content was quantified by measuring a water content using a Karl Fisher method.

Take `COc1ccc([C@@H]2CC(=O)c3c(O)cc(O[C@@H]4O[C@H](CO[C@@H]5O[C@@H](C)[C@H](O)[C@@H](O)[C@H]5O)[C@@H](O)[C@H](O)[C@H]4O)cc3O2)cc1O` [Generic powdered Hesperidin]: the Water solubility was 0.00%.
Regarding `O=c1c(O)c(-c2ccc(O)cc2)oc2cc(O)cc(O)c12` [Generic Powdered kaempferol], the Water solubility was found to be 0.01%.
In the case of `O=c1cc(-c2ccc(O)c(O)c2)oc2cc(O)cc(O)c12` [Generic Powdered Luteolin] it was 0.02%; in that of `O=C1C[C@@H](c2ccc(O)cc2)Oc2cc(O)cc(O)c21` [Generic Powdered Naringenin], 0.04%; in that of `COc1cc(/C=C/C(=O)CC(=O)/C=C/c2ccc(O)c(OC)c2)ccc1O` [Generic Powdered Curcumin], 0.00%.
`O=c1cc(-c2ccccc2)oc2cc(O)c(O)c(O)c12` [Generic Powdered Baicalein] came in with a Water solubility of 0.00%.
In the case of `Oc1ccc(/C=C/c2cc(O)cc(O)c2)cc1` [Generic Powdered Resveratrol] it was 0.00%; in that of `O=c1c(O)c(-c2ccc(O)c(O)c2)oc2cc(O)cc(O)c12` [Generic powdered Quercetin], 0.00%.
